{"source": "patent EP1247803A2", "about": "“Indolinone compounds suitable for modulation of protein kinases” (Sugen, Inc., priority 1996, dated 1998)", "key": {"[1]": {"tested_on": "MET", "assay": "MET biochemical kinase assay", "set-up": "species or system human; concentration or dose not given beside the values", "in_short": "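Lysate-derived MET, or chimeric receptors, is immobilised on plates through an antibody to the human MET cytoplasmic region. Compounds are added along with kinase buffer supplying ATP and divalent metal ions, and receptor autophosphorylation is quantified by anti-phosphotyrosine ELISA.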"}, "[2]": {"molecular_target": "PDGF-R (Homo sapiens, UniProt P09619)", "sequence (P09619 33-1106, species assumed)": "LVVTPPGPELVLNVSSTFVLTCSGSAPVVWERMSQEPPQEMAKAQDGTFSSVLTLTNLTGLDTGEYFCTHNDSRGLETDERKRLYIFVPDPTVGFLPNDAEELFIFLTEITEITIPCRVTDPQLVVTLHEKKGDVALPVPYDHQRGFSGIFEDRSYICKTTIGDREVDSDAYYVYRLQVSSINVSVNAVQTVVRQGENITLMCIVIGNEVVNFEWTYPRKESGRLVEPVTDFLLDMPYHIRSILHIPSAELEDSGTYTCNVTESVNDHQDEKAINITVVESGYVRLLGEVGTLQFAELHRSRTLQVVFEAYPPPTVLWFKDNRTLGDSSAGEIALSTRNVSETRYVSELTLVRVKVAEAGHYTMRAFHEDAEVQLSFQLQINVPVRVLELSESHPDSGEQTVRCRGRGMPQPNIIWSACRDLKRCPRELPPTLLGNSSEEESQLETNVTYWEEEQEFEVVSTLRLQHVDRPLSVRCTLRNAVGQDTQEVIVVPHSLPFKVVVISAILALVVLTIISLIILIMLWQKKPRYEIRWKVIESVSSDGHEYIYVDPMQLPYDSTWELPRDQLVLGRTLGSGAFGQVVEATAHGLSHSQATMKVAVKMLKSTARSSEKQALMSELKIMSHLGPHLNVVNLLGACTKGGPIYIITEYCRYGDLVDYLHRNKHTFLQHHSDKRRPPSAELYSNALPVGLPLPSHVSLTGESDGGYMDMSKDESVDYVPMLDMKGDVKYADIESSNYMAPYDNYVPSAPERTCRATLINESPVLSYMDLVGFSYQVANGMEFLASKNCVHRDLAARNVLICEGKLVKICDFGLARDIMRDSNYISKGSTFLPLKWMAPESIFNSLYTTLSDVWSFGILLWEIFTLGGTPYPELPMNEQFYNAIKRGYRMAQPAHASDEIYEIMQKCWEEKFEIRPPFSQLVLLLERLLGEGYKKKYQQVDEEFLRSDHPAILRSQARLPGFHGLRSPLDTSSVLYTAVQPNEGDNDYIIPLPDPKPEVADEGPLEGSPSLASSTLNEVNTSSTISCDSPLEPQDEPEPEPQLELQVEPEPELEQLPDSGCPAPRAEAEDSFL", "assay": "PDGF-R ELISA", "format": "cell-based", "from_the_text": "A PDGF-R ELISA is described in International Patent Publication No. WO 96/40116, published December 19, 1996 by Tang et al."}, "[3]": {"molecular_target": "T1, EGFR (Homo sapiens, UniProt P00533)", "T1 construct": "Add 7 ug A431 cell lysate per well (EGFR source); endogenous in cells; host or cells: A431", "T1 sequence (P00533 25-1210)": "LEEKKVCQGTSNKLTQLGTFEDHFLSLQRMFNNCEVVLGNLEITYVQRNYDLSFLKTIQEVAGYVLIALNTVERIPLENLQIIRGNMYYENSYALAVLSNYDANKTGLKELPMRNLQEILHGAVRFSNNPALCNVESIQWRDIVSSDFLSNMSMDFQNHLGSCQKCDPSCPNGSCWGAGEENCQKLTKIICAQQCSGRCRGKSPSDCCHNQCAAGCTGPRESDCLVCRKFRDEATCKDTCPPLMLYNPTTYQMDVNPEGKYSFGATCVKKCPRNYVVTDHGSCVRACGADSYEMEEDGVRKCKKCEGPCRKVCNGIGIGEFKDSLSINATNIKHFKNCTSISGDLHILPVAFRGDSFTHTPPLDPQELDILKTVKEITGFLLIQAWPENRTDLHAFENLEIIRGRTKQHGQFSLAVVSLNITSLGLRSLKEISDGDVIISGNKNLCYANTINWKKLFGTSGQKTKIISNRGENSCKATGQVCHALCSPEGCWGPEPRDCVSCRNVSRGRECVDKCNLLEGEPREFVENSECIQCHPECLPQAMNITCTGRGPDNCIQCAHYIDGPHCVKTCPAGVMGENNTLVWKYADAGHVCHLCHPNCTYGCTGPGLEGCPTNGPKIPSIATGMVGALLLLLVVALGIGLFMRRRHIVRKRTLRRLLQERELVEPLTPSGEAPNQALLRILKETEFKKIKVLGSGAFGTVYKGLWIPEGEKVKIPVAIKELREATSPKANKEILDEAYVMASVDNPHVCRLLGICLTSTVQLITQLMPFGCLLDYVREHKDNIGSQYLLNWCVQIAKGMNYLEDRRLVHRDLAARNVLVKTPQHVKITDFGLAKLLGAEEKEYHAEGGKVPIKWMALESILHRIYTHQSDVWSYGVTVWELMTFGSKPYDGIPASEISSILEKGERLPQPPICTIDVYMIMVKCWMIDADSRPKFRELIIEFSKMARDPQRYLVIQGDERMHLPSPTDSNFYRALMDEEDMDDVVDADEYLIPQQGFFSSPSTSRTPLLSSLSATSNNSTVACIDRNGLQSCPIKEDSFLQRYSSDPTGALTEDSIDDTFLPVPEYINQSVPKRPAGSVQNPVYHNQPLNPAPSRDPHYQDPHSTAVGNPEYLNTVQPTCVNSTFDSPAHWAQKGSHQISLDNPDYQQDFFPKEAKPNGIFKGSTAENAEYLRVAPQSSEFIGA", "assay": "EGFR ELISA assay (in vitro kinase activity, EGFR captured from A431 cell lysate)", "format": "biochemical", "set-up": "concentration or dose not given beside the values", "in_short": "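EGFR from A431 lysate was captured on plates coated with anti-EGFR antibody. Compounds were added 30 min before a 5 min phosphorylation with 3 µM ATP/5 mM MnCl2, which was stopped with 20 mM EDTA. Phosphotyrosine was detected with rabbit anti-phosphotyrosine, then a peroxidase-conjugated secondary and ABTS/H2O2, read at 410 nm.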"}}}
{"smiles": "O=C1Nc2ccc(CCCl)cc2C1=Cc1cc2c3c(c1O)CCCN3CCC2", "note": "[10724/G05]", "values": [{"measurement": "Met Kinase % Inhibition", "setting": "[1]", "value": 61.0, "unit": "%"}, {"measurement": "PDGF Kinase %Inhibition", "setting": "[2]", "value": -10.3, "unit": "%"}, {"measurement": "Biochem EGFR %Inhibition", "setting": "[3]", "value": -20.8, "unit": "%"}]}
{"smiles": "CNS(=O)(=O)c1ccc2c(c1)C(=Cc1ccc(N(C)C)c3ccccc13)C(=O)N2", "note": "[10724/D02]", "values": [{"measurement": "Met Kinase % Inhibition", "setting": "[1]", "value": 37.5, "unit": "%"}, {"measurement": "PDGF Kinase %Inhibition", "setting": "[2]", "value": -9.6, "unit": "%"}, {"measurement": "Biochem EGFR %Inhibition", "setting": "[3]", "value": 40.5, "unit": "%"}]}
{"smiles": "COc1cc(C)cc(O)c1C=C1C(=O)Nc2ccc(I)cc21", "note": "[10725/B06]", "values": [{"measurement": "Met Kinase % Inhibition", "setting": "[1]", "value": 53.3, "unit": "%"}, {"measurement": "PDGF Kinase %Inhibition", "setting": "[2]", "value": 31.3, "unit": "%"}, {"measurement": "Biochem EGFR %Inhibition", "setting": "[3]", "value": -13.7, "unit": "%"}]}
{"smiles": "CCc1ccc(C=C2C(=O)Nc3ccc(S(=O)(=O)Nc4ccc(C(F)(F)F)cc4)cc32)o1", "note": "[10724/E10]", "values": [{"measurement": "Met Kinase % Inhibition", "setting": "[1]", "value": 84.0, "unit": "%"}, {"measurement": "PDGF Kinase %Inhibition", "setting": "[2]", "value": 34.9, "unit": "%"}, {"measurement": "Biochem EGFR %Inhibition", "setting": "[3]", "value": 41.4, "unit": "%"}]}
{"smiles": "CCc1ccc(C=C2C(=O)Nc3ccc(I)cc32)o1", "note": "[10724/B10]", "values": [{"measurement": "Met Kinase % Inhibition", "setting": "[1]", "value": 95.0, "unit": "%"}, {"measurement": "PDGF Kinase %Inhibition", "setting": "[2]", "value": 9.8, "unit": "%"}, {"measurement": "Biochem EGFR %Inhibition", "setting": "[3]", "value": 76.2, "unit": "%"}]}
{"smiles": "COC(=O)Cc1c(Cl)[nH]c(C=C2C(=O)Nc3c(Br)cc(Br)c(C)c32)c1C(=O)OC", "note": "[10725/A09]", "values": [{"measurement": "Met Kinase % Inhibition", "setting": "[1]", "value": 44.3, "unit": "%"}, {"measurement": "PDGF Kinase %Inhibition", "setting": "[2]", "value": 29.4, "unit": "%"}, {"measurement": "Biochem EGFR %Inhibition", "setting": "[3]", "value": 4.9, "unit": "%"}]}
{"smiles": "Cc1c(Br)ccc2c1C(=Cc1sc3scc(C)c3c1C)C(=O)N2", "note": "[10724/C11]", "values": [{"measurement": "Met Kinase % Inhibition", "setting": "[1]", "value": 4.9, "unit": "%"}, {"measurement": "PDGF Kinase %Inhibition", "setting": "[2]", "value": 23.0, "unit": "%"}, {"measurement": "Biochem EGFR %Inhibition", "setting": "[3]", "value": 0.7, "unit": "%"}]}
{"smiles": "CNS(=O)(=O)c1ccc2c(c1)C(=Cc1cc3ccccc3o1)C(=O)N2", "note": "[10724/D07]", "values": [{"measurement": "Met Kinase % Inhibition", "setting": "[1]", "value": 38.1, "unit": "%"}, {"measurement": "PDGF Kinase %Inhibition", "setting": "[2]", "value": 7.0, "unit": "%"}, {"measurement": "Biochem EGFR %Inhibition", "setting": "[3]", "value": 25.6, "unit": "%"}]}
{"smiles": "CCc1ccc(C=C2C(=O)Nc3ccc(S(=O)(=O)NC)cc32)o1", "note": "[10724/D10]", "values": [{"measurement": "Met Kinase % Inhibition", "setting": "[1]", "value": 59.6, "unit": "%"}, {"measurement": "PDGF Kinase %Inhibition", "setting": "[2]", "value": 38.3, "unit": "%"}, {"measurement": "Biochem EGFR %Inhibition", "setting": "[3]", "value": 12.7, "unit": "%"}]}
{"smiles": "Cc1csc2sc(C=C3C(=O)Nc4ccc(I)cc43)c(C)c12", "note": "[10724/B11]", "values": [{"measurement": "Met Kinase % Inhibition", "setting": "[1]", "value": 43.0, "unit": "%"}, {"measurement": "PDGF Kinase %Inhibition", "setting": "[2]", "value": 23.0, "unit": "%"}, {"measurement": "Biochem EGFR %Inhibition", "setting": "[3]", "value": -23.2, "unit": "%"}]}
{"smiles": "CC(C)c1cc(C=C2C(=O)Nc3ccc(I)cc32)cc(C(C)C)c1O", "note": "[10724/B06]", "values": [{"measurement": "Met Kinase % Inhibition", "setting": "[1]", "value": 52.1, "unit": "%"}, {"measurement": "PDGF Kinase %Inhibition", "setting": "[2]", "value": 43.2, "unit": "%"}, {"measurement": "Biochem EGFR %Inhibition", "setting": "[3]", "value": 30.9, "unit": "%"}]}
